# Where “and” joins values, the source holds several entries; their conditions need not be identical. Equal entries are not always repeated.
# Tests used:
# Assay type in all cases: in vivo
# [1] = tested on: P. cynomolgi liver stage hypnozoites; assay: Radical cure test in relapsed Rhesus monkeys
# Protocol: Monkeys were treated with chloroquine (10 mg/kg/day) by oral for 7 consecutive days and the test compounds by IM for 3 consecutive days after the parasitemia level reached 5,000 parasites/mm^3. Chloroquine (CQ) at 10 mg/kg/day×7 days eliminates the blood stage parasites, but not the liver stage hypnozoites. Compounds with antihypnozoite activity will delay the relapse or radically cure the infection. To evaluate the radical curative properties, daily blood samples were followed for 21 days, 3 times per week for 4 weeks, and then 2 times weekly until 100 days after the last day of test compound administration. Parasite clearance should occur in all animals treated with chloroquine. Relapse is expected in the control group. Relapse in the treated group indicates failure of the test compounds. […] Relapses of the control monkeys were treated with chloroquine once daily for 7-days and observed for a second relapse. Relapse in experimental animals and the second relapse of the control monkeys were treated with the standard 7-day oral CQ (chloroquine) and primaquine (1.78 mg base/kg). After standard treatment, blood smears were monitored daily for 4 consecutive days of negative results and 2 times weekly for 2 weeks.
# [2] = tested on: P. berghei sporozoites; assay: Causal prophylactic activity, exoerythrocytic (EE) mouse model, P. berghei sporozoites; settings: 3 days treated
# Protocol: (§1) New compounds were assessed for their causal prophylactic activity in two different exoerythrocytic (EE) mouse models using sporozoites of either P. berghei or P. yoelii. The procedures have been previously described (see, for example, Q. Zhang et al., J. Med. Chem. 48 (20): 6472-6481 (2005)). Briefly, each compound was ground with a mortar and pestle and suspended in hydroxyethylcellulose and Tween 80 for compounds to be administered PO and those given SC were suspended in peanut oil. Each compound was prepared at different dose levels. Compounds were administered either PO or SC to mice once a day for three consecutive days, to mice on the day before, 4 hours before, and the day after being inoculated intraperitoneally with P. yoelii sporozoites or P. berghei sporozoites intravenously. Whole body weights were taken on Day 0 and Day 6 then approximately twice a week for 31 days. A blood film was taken on Day 5 and then approximately twice a week for 31 days. Mice losing greater than about 20% of their body weight were sacrificed. A compound was considered active if only low levels of parasites were found (less than about 10%) in blood films taken on Day 5 or any biweekly for 31 days. Mice alive on Day 31 with no parasites found in any blood films were considered protected.
# [3] = tested on: P. cynomolgi sporozoites; assay: Causal prophylactic test in P. cynomolgi sporozoites challenged Rhesus monkeys; settings: for Causal prophylactic activity in Rhesus test (in words): 30 mg/kg/day for 3 days by IM; for Patency (Days Post-innoculation): one value per monkey, 30 mg/kg 1 daily for 3 days, IM (days -1, 0, +1), 30 mg/kg
# Protocol: Among the new compounds prepared, representative compounds 5e, 6c, 7a and 7c were assessed for causal prophylactic and radical cure activities in Rhesus monkeys. To protect the Rhesus monkeys, a test compound must pass a mouse toxicity test at 300 mg/kg/day for 3 consecutive days by SC administration, and mice must not lose more than 5% body weight within 30 days after receiving the test compound.
# The causal prophylactic and radical curative antimalarial activity of the new derivatives 5e, 6c, 7a and 7c were assessed in a P. cynomolgi sporozoites challenged Rhesus monkey model. Detailed procedure of sporozoites harvest and drug tests have been described previously (J. Guan et al., Bioorg. Med. Chem. 23, 699-704 (2005); Q. Zhang et al., J. Med. Chem. 48 (20): 6472-6481 (2005)) Briefly, monkeys were randomized to control groups and experimental groups. A donor monkey was inoculated intravenously with 1.3 mL freshly-thawed frozen infected red blood cells (DA310). When the donor monkey developed gametocytemia, mosquito feedings were conducted on days 13 and 14 after inoculation. The donor monkey was treated with intramuscular chloroquine hydrochloride (CQ) 10 mg/kg, once a day after the second mosquito feeding and continued for 7 days. On day 0 (beginning of assay), each of the monkeys was inoculated intravenously with 1-ml inoculum of suspension containing about 1.0×10^6 (one million) P. cynomolgi sporozoites harvested from Anopheles dirus mosquitoes' salivary glands previously fed on the donor monkey (See, for example, Corcoran, K D, et al. (1993) Am. J. Trop. Med. Hyg. 49:473 477, and Shanks, G D, et al. (2001) Clinical Infectious Diseases 33:1968 1974). All monkeys received treatment on days −1, 0 and 1. The control monkeys received dimethylsulfoxide (DMSO) and the experimental animals received testing compound intramusculary. After the assay, all monkeys were given standard malarial treatment. Specifically, seven-day primaquine (1.78 mg/kg) and chloroquine (10 mg/kg) were administered to treat all monkeys.
# [4] = tested on: P. yoelii sporozoites; assay: Causal prophylactic activity, exoerythrocytic (EE) mouse model, P. yoelii sporozoites; settings: for P. yoelli # Mice Protected/# Mice Used: 3 days treated; for Causal prophylactic protection in mice (comparison in words): Table 5, compared to control compound 3 or between P. yoelii and P. berghei
# Protocol: as §1
# [5] = one value per monkey, 30 mg/kg 1 daily for 3 days IM with CQ 10 mg/kg x7 po
Structure (SMILES),"Delayed relapse, Days Post-treatment [1, 5]",P. berghei # Mice Protected/# Mice Used ([2]; Dose/day 40 mg/kg),P. berghei # Mice Protected/# Mice Used ([2]; Dose/day 160 mg/kg),Causal prophylactic activity in Rhesus test (in words) [3],Patency (Days Post-innoculation) [3],P. yoelli # Mice Protected/# Mice Used ([4]; Dose/day 10 mg/kg),P. yoelli # Mice Protected/# Mice Used ([4]; Dose/day 40 mg/kg),P. yoelli # Mice Protected/# Mice Used ([4]; Dose/day 160 mg/kg),other results
CC(C)N1C(=O)C(=O)N=C1N=C(NOCc1ccccc1)Nc1ccc(Cl)c(Cl)c1 [Compound 5e],35 days and 33 days,0/5,0/5,about equal in causal prophylactic activity to 7c,27 days and 29 days,,,,
CC(C)NC(=NC1=NC(=O)C(=O)N1C(C)C)Nc1ccc(Cl)c(Cl)c1 [Compound 6c],66 days and 91 days,0/5,1/5,most potent causal prophylactic activity,62 days and 94 days,,,,"Radical curative efficacy (in words) ([1]; test compound IM for 3 days with CQ po for 7 days): more active than 5e, 7a and 7c"
CC(C)N1C(=O)C(=O)N=C1N=C(NC(=O)C(C)(C)C)Nc1ccc(Cl)c(Cl)c1 [Compound 7c],,,,superior protective activity than that of 7a,21 days and 40 days,,,,"Delayed relapse, days longer as compared with control animals ([1]; 40 mg/kg 1 daily for 3 days IM with CQ 10 mg/kg x7 po): 20 days and 23 days; Delayed relapse, Days Post-treatment ([1]; one value per monkey, 40 mg/kg 1 daily for 3 days IM with CQ 10 mg/kg x7 po): 29 days and 32 days"
"CC(C)N1C(=O)C(=O)N=C1/N=C(\NC(=O)OC(C)(C)C)Nc1ccc(Cl)c(Cl)c1 [Compound 3, reference compound]",,2/10,4/10,,,3/5,2/5,4/5,
CC(C)N1C(=O)C(=O)N=C1N=C(Nc1ccccc1)Nc1ccc(Cl)c(Cl)c1 [Compound 6f],,0/5,0/5,,,5/5,5/5,5/5,Causal prophylactic protection in mice (comparison in words) [4]: enhanced protection
CC(C)N1C(=O)C(=O)N=C1N=C(NCC(C)(C)C)Nc1ccc(Cl)c(Cl)c1 [Compound 6e],,0/5,1/5,,,5/5,5/5,5/5,Causal prophylactic protection in mice (comparison in words) [4]: enhanced protection
CCC(CC)C(=O)NC(=NC1=NC(=O)C(=O)N1C(C)C)Nc1ccc(Cl)c(Cl)c1 [Compound 7a],16 days,,,weak causal prophylactic activity,13 days and 17 days,,,,"Delayed relapse, days longer as compared with control animals ([1]; 30 mg/kg 1 daily for 3 days IM with CQ 10 mg/kg x7 po): 7 days; Results (radical cure, in words) ([1]; 30 mg/kg 1 daily for 3 days IM with CQ 10 mg/kg x7 po, no relapse after 100 days = radically cured): One out of two monkeys treated with 7a was cured and Cure"
"CCN(CC)CCCC(C)Nc1ccnc2cc(Cl)ccc12 (centres unmarked) [CQ, chloroquine, reference compound]",,,,,,,,,"Relapse, Days Post-treatment ([1]; one value per monkey, CQ 10 mg/kg x7 po alone (Drug 2 none)): 9 days"
